Common to all, as to experiment: relative viability (nuclei count vs DMSO), 5 days (fraction); higher = more cells survive
Compound in the assay “GSK126 + Trametinib”: CC[C@H](C)N1C=C(C2=C(C=C(C=C21)C3=CN=C(C=C3)N4CCNCC4)C(=O)NCC5=C(C=C(NC5=O)C)C)C [GSK126] + CC(=O)Nc1cccc(-n2c(=O)n(C3CC3)c(=O)c3c(Nc4ccc(I)cc4F)n(C)c(=O)c(C)c32)c1 [Trametinib] (partner 0.02 µM)
Put shortly: (§1)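 Lung cancer cell lines in 1536-well plates were dosed by pin tool the day after seeding, either with one drug alone or with a fixed anchor-drug dose plus five library-drug doses (not always all listed) in √10 steps. After 5 days, cells were fixed and their nuclei stained in one step (final 0.05% Triton X-100, 1% formaldehyde, 1 ug/ml Hoechst), then counted on 4× images. Relative viability is the nuclei count in treated wells divided by that in vehicle wells. Values are medians of duplicate plates.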

Compound in the assay “Carboplatin + Tozasertib”: C1CC(C1)(C(=O)O)C(=O)O.[NH2-].[NH2-].[Pt+2] [Carboplatin] + Cc1cc(Nc2cc(N3CCN(C)CC3)nc(Sc3ccc(NC(=O)C4CC4)cc3)n2)n[nH]1 [Tozasertib] (partner 0.1 µM)
Put shortly:
as §1

Compound in the assay “MLN4924 + Dasatinib”: NS(=O)(=O)OC[C@@H]1C[C@@H](n2ccc3c(N[C@H]4CCc5ccccc54)ncnc32)C[C@@H]1O [MLN4924] + Cc1nc(Nc2ncc(C(=O)Nc3c(C)cccc3Cl)s2)cc(N2CCN(CCO)CC2)n1 [Dasatinib] (partner 0.075 µM)
A digest of the protocol: as §1

Compound in the assay “GSK126 + Pemetrexed”: CC[C@H](C)N1C=C(C2=C(C=C(C=C21)C3=CN=C(C=C3)N4CCNCC4)C(=O)NCC5=C(C=C(NC5=O)C)C)C [GSK126] + Nc1nc2[nH]cc(CCc3ccc(C(=O)N[C@@H](CCC(=O)O)C(=O)O)cc3)c2c(=O)[nH]1 [Pemetrexed] (partner 0.2 µM)
Put shortly: as §1

Consider NCI-H1650, for which the relative viability with GSK126 + Trametinib (first compound 0.08 µM) came out at 0.631; with GSK126 + Trametinib (first compound 0.253 µM), 0.656; with GSK126 + Trametinib (first compound 0.8 µM) it was 0.428; in the assay with GSK126 + Trametinib (first compound 2.53 µM), 0.578; with GSK126 + Trametinib (first compound 8 µM), 0.654; with Carboplatin + Tozasertib (first compound 0.08 µM), 0.473. Also, the relative viability in the assay with Carboplatin + Tozasertib (first compound 0.253 µM) worked out at 0.342; with Carboplatin + Tozasertib (first compound 0.8 µM), 0.427; in the assay with Carboplatin + Tozasertib (first compound 2.53 µM), 0.348; with Carboplatin + Tozasertib (first compound 8 µM), 0.373; with MLN4924 + Dasatinib (first compound 0.04 µM), 0.41; in the assay with MLN4924 + Dasatinib (first compound 0.1265 µM), 0.291. Further, the relative viability worked out at 0.267 with MLN4924 + Dasatinib (first compound 0.4 µM); 0.166 with MLN4924 + Dasatinib (first compound 1.265 µM); 0.179 in the assay with MLN4924 + Dasatinib (first compound 4 µM); 0.393 in the assay with GSK126 + Pemetrexed (first compound 0.08 µM); 0.437 in the assay with GSK126 + Pemetrexed (first compound 0.253 µM); 0.39 with GSK126 + Pemetrexed (first compound 0.8 µM). Also, the relative viability turned out to be 0.302 with GSK126 + Pemetrexed (first compound 2.53 µM) and 0.344 in the assay with GSK126 + Pemetrexed (first compound 8 µM).
On to NCI-H1651, for which the relative viability with GSK126 + Trametinib (first compound 0.08 µM) is 0.794; in the assay with GSK126 + Trametinib (first compound 0.253 µM), 0.86; with GSK126 + Trametinib (first compound 0.8 µM) it was 0.811; with GSK126 + Trametinib (first compound 2.53 µM) it was 0.844; with GSK126 + Trametinib (first compound 8 µM), 0.866; with Carboplatin + Tozasertib (first compound 0.08 µM), 0.89. The relative viability with Carboplatin + Tozasertib (first compound 0.253 µM) was determined as 0.668; with Carboplatin + Tozasertib (first compound 0.8 µM), 0.593; in the assay with Carboplatin + Tozasertib (first compound 2.53 µM), 0.508; with Carboplatin + Tozasertib (first compound 8 µM) it was 0.305; with MLN4924 + Dasatinib (first compound 0.04 µM) it was 0.411; with MLN4924 + Dasatinib (first compound 0.1265 µM), 0.473. Further, the relative viability with MLN4924 + Dasatinib (first compound 0.4 µM) amounted to 0.431; in the assay with MLN4924 + Dasatinib (first compound 1.265 µM), 0.167; with MLN4924 + Dasatinib (first compound 4 µM) it was 0.116; with GSK126 + Pemetrexed (first compound 0.08 µM), 0.651; with GSK126 + Pemetrexed (first compound 0.253 µM), 0.594; with GSK126 + Pemetrexed (first compound 0.8 µM) it was 0.566. Further, the relative viability is 0.67 with GSK126 + Pemetrexed (first compound 2.53 µM) and 0.636 with GSK126 + Pemetrexed (first compound 8 µM).
Consider NCI-H1666, for which the relative viability with GSK126 + Trametinib (first compound 0.08 µM) worked out at 0.859; in the assay with GSK126 + Trametinib (first compound 0.253 µM), 0.998; in the assay with GSK126 + Trametinib (first compound 0.8 µM), 0.841; with GSK126 + Trametinib (first compound 2.53 µM), 0.818; with GSK126 + Trametinib (first compound 8 µM) it was 0.838; with Carboplatin + Tozasertib (first compound 0.08 µM) it was 0.597. In addition, the relative viability with Carboplatin + Tozasertib (first compound 0.253 µM) was determined as 0.683; with Carboplatin + Tozasertib (first compound 0.8 µM) it was 0.599; in the assay with Carboplatin + Tozasertib (first compound 2.53 µM), 0.534; with Carboplatin + Tozasertib (first compound 8 µM) it was 0.526; with MLN4924 + Dasatinib (first compound 0.04 µM), 0.898; with MLN4924 + Dasatinib (first compound 0.1265 µM) it was 0.781. Besides, the relative viability with MLN4924 + Dasatinib (first compound 0.4 µM) came to 0.503; with MLN4924 + Dasatinib (first compound 1.265 µM) it was 0.238; in the assay with MLN4924 + Dasatinib (first compound 4 µM), 0.28; with GSK126 + Pemetrexed (first compound 0.08 µM) it was 0.872; with GSK126 + Pemetrexed (first compound 0.253 µM), 0.936; with GSK126 + Pemetrexed (first compound 0.8 µM), 0.766. Also, the relative viability was 0.796 with GSK126 + Pemetrexed (first compound 2.53 µM) and 0.807 in the assay with GSK126 + Pemetrexed (first compound 8 µM).
As for NCI-H1734, the relative viability with GSK126 + Trametinib (first compound 0.08 µM) came out at 0.801; with GSK126 + Trametinib (first compound 0.253 µM), 0.63; with GSK126 + Trametinib (first compound 0.8 µM), 0.662; with GSK126 + Trametinib (first compound 2.53 µM), 0.731; with GSK126 + Trametinib (first compound 8 µM) it was 0.766; with Carboplatin + Tozasertib (first compound 0.08 µM), 0.289. Moreover, the relative viability with Carboplatin + Tozasertib (first compound 0.253 µM) was determined as 0.295; with Carboplatin + Tozasertib (first compound 0.8 µM) it was 0.31; with Carboplatin + Tozasertib (first compound 2.53 µM), 0.242; with Carboplatin + Tozasertib (first compound 8 µM) it was 0.26; in the assay with MLN4924 + Dasatinib (first compound 0.04 µM) it was 0.636; with MLN4924 + Dasatinib (first compound 0.1265 µM), 0.588. Moreover, the relative viability with MLN4924 + Dasatinib (first compound 0.4 µM) amounted to 0.305; in the assay with MLN4924 + Dasatinib (first compound 1.265 µM), 0.0902; with MLN4924 + Dasatinib (first compound 4 µM), 0.102; with GSK126 + Pemetrexed (first compound 0.08 µM), 0.406; with GSK126 + Pemetrexed (first compound 0.253 µM), 0.411; with GSK126 + Pemetrexed (first compound 0.8 µM), 0.463. Further, the relative viability in the assay with GSK126 + Pemetrexed (first compound 2.53 µM) was 0.448; with GSK126 + Pemetrexed (first compound 8 µM), 0.461.

For the origin of these results see the supplement of paper PMC10307832.
